{"source": "patent US20060148782A1", "about": "“Method and medicine for treating a mammal presenting urinary incontinence, urinary urgency, or both” (priority 2003, published 2006)", "key": {"urinary incontinence": {"test_system": "urinary incontinence", "experiment": "Treatment of a group of cats and dogs presenting urinary incontinence", "format": "in vivo", "details": "admixture of 5 mg/day imipramine hydrochloride and 100 mg stool softener (or by weight), oral, after several days; group of twenty cats and dogs", "source_text": "A group of twenty mammals, including female and male cats and dogs, present with urinary incontinence."}, "[1]": {"experiment": "Side effects reported by treated patients", "description": "The patient is treated with a total daily dose of medicine, which includes an admixture of 25 mg of imipramine hydrochloride and 275 mg of stool softener (docusate sodium). […] A selective beta-blocker is administered in response to tachycardia on an as-needed basis."}, "[2]": {"test_system": "urinary incontinence and/or urinary urgency", "experiment": "Treatment of patients presenting urinary incontinence and/or urinary urgency (case examples)", "description": "The patient stops taking the daily dosages.\nThe complaints include urinary incontinence and/or urinary urgency (awake and sleeping).\nThe patient is treated with a total daily dose of medicine, which includes 50 mg of tricyclic antidepressant (imipramine hydrochloride) and 300 mg of stool softener (docusate sodium).\nThe complaints include chronic urinary incontinence and/or urinary urgency.\nThe patient is treated with a total daily dose of medicine, which includes 50 mg of imipramine hydrochloride and 350 mg of stool softener (docusate sodium), ingested separately.\nThe complaints include chronic, intermittent urinary incontinence and urinary urgency.\nThe patient is treated with a total daily dose of medicine, which includes an admixture of 25 mg of imipramine hydrochloride and 275 mg of stool softener (docusate sodium)."}}, "note": "Where a name gives a salt, the structure may show the parent alone.", "data": [{"smiles": "CN(C)CCCN1c2ccccc2CCc2ccccc21", "note": "[imipramine hydrochloride, Imipramine hydrochloride]", "values": [{"measurement": "reduction or elimination of urinary incontinence", "setting": "urinary incontinence", "value": "reduction or elimination of urinary incontinence for a significant portion of the members of the group"}, {"measurement": "adverse side effects", "setting": "[1]; 75 mg/day imipramine hydrochloride (25 mg/3 times daily) and a stool softener, oral", "value": "tolerates a dry mouth"}, {"measurement": "adverse side effects", "setting": "[1]; admixture of 25 mg/day imipramine hydrochloride and 275 mg docusate sodium, selective beta-blocker given as needed", "value": "tachycardia"}, {"measurement": "control of bladder functions (awake and sleeping) noted by patient", "setting": "[2]; 50 mg/day imipramine hydrochloride and 300 mg docusate sodium, oral, after several days", "value": "full control of bladder functions"}, {"measurement": "control of bladder functions (awake and sleeping) noted by patient", "setting": "[2]; 50 mg/day imipramine hydrochloride and 350 mg docusate sodium, ingested separately, oral, after several days", "value": "partial to full control of bladder functions"}, {"measurement": "control of bladder functions (awake and sleeping) noted by patient", "setting": "[2]; 75 mg/day imipramine hydrochloride (25 mg/3 times daily) and a stool softener, oral, after several days", "value": "partial to full control of bladder functions"}, {"measurement": "control of bladder functions (awake and sleeping) noted by patient", "setting": "[2]; admixture of 25 mg/day imipramine hydrochloride and 275 mg docusate sodium, oral, after several days", "value": "partial to full control of bladder functions"}]}, {"smiles": "CN(C)CCCN1c2ccccc2CCc2ccccc21.CN(C)CCCN1c2ccccc2CCc2ccccc21.O=C(O)c1cc2ccccc2c(Cc2c(O)c(C(=O)O)cc3ccccc23)c1O", "note": "[imipramine pamoate, 5-[3-(dimethylamino)]propyl-10,11-dihydro-5H-dibenzazepine 4,4-methlyenebis-(3-hydroxy-2-napthoate)]", "values": [{"measurement": "adverse side effects", "setting": "[1]; 75 mg/day imipramine pamoate without stool softener, oral", "value": "develops constipation"}, {"measurement": "control of bladder functions noted by patient", "setting": "[2]; 75 mg/day imipramine pamoate without stool softener, oral, after several days", "value": "full control of bladder functions"}, {"measurement": "recurrence of symptoms after stopping daily dosages", "setting": "[2]; after about three days without treatment", "value": "bladder urgency and incontinence recur"}]}]}
